One experiment deals with MEF E16 cells. The experiment can be described thus: immunocytochemical staining for DCX and Map2ab in MEF cultures (neuronal differentiation). It is filed as cell-based, mouse. As to conditions: Neurobasal plus 1% FCS, 10 μM, 7 days; for number of DCX/Map2ab double positive cells: FIG. 3B. How it is done: Following the results from the Luciferase assay described in Example 17, the inventors examined the ability of compounds according to the invention and reference compounds to promote differentiation of MEF E16 cells, using immunocytochemical staining with DCX and Map2ab antibodies.
Compound 1a at 10 and 100 μM was analyzed for its effect on the expression of the neuronal specific markers DCX and Map2ab using primary fetal mouse brain derived cells stimulated in DMEM-KO media.
Mouse embryonic day 16 forebrain cells were prepared as described in Example 17. Before seeding the cells, glass-coverslips were coated and prepared. Glass-coverslips (13 mm) (Menzel GmbH, Braunschweig, Germany) were incubated in 1 M HCl at 65° C. overnight and stored in isopropanol until further use. Coverslips were put into 24-well test plates and air-dried. Subsequently coverslips were incubated for 1 h with 100 μg/ml Poly-L-ornithin solution at 37° C. After washing three times with sterile water coverslips were incubated with 5 μg/ml Laminin solution for 2 h. Immediately after removal of the Laminin solution cells were seeded (40.000 cells/well) in DMEM-KO plus supplement or in NB-B27 plus 1% FCS medium. One day later, cells had attached to the substrate. Cells were stimulated with the above-mentioned substances (in DMEM-KO plus supplement medium: 10 μM and 100 μM; in NB-B27 plus 1% FCS medium: 10 μM) for 3 or 7 days. In the 7 day group, medium including the substances was replaced after three days. Cultures were maintained at 37° C. in a humidified incubator with 5% CO2.
Cells were fixed with phosphate-buffered 4% paraformaldehyde (Sigma-Aldrich, Taufkirchen, Germany). […] The specimens were incubated overnight at 4° C. with the primary antibodies at the following dilutions in FSGB: rabbit anti Doublecortin (DCX) 1:500 (NEB, Frankfurt, Germany) and mouse anti-Map 2a+2b 1:400 (Sigma-Aldrich, Taufkirchen, Germany). After washing three times with FSGB, cells were incubated with the species-specific secondary antibodies, which were conjugated to fluorochromes, for 2 hours in the dark at room temperature. To remove unbound secondary antibodies, cells were washed again with PBS. Nuclear counterstaining was performed with 4′,6′-diamidino-2-phenylindole dihydrochloride hydrate (DAPI) at […] (Sigma Aldrich, Taufkirchen, Germany). Finally, cells were washed again three times with PBS and mounted on microscope slides using Prolong Antifade reagent (Invitrogen, Oreg., USA).
The immunostainings were examined using Olympus IX81 inverted research microscope and the software Volocity 5.3.1. To quantify the number of cells, five indiscriminately chosen visual fields per coverslip were selected under a focus of 40 times. The total number of cells (DAPI positive cells), the number of DCX positive, Map2ab positive, and DCX/Map2ab double positive cells was determined.

Experiment [1] relates to promoter of the neuronal precursor specific gene doublecortin (DCX). The experiment can be described thus: DCX promoter firefly-luciferase assay in primary fetal mouse brain derived (MEF) cells. The following applies: for stimulatory effect on the DCX promoter activity (FF/R relative to control): DCX promoter-luciferase transfected MEF cells, stimulated three days; for effect on DCX promoter induction: 10 μM, MEF cells, three days. It is filed as cell-based. As to the method:
Primary mouse embryonic day 16 forebrain (MEF) cultures were prepared as follows. Pregnant NMRI mice (Charles River Laboratories, Sulzfeld, Germany) were sacrificed and the uteri promptly removed and immersed in ice-cold Dulbecco's phosphate buffered saline solution—DPBS (PAA, Pasching, Austria). Eight embryonic day (E) 16 embryos were released from the uteri; forebrains were taken out, separated from surrounding tissues and mechanically dissociated using a razor blade. Subsequently the dissociated cells were collected by 5 min centrifugation at 120×g. The pellet was resuspended in 10 ml PPD-solution containing 0.01% papain (Worthington, England), 0.1% Dispasell (Roche, Basel, Switzerland), 0.01% DNasel (Worthington, England), 12.4 mM MgSO4 dissolved in HBSS w/o Ca/Mg (PAA, Pasching, Austria). The cell suspension was incubated at 37° C. and triturated every ten minutes for three times. The cell suspension was then centrifuged at 120×g for 5 minutes and washed three times in Neurobasal medium (Gibco BRL, Germany) supplemented with 2% (v/v) B27 (Gibco BRL, Karlsruhe), 2 mM L-glutamine, 100 μg/ml Penicillin/Streptomycin (PAN Biotech GmbH, Aidenbach, Germany). Finally, the cell preparation was resuspended in 12 ml Neurobasal medium supplemented with B27 (Gibco BRL, Karlsruhe), 2 mM L-glutamine, 100 μg/ml Penicillin/Streptomycin (PAN Biotech GmbH, Aidenbach, Germany), 20 ng/ml Epidermal Growth Factor—rhEGF, 20 ng/ml Fibroblast Growth Factor—rhFGF (R&D Systems, Wiesbaden-Nordenstadt, Germany) and 2 μg/ml Heparin (Sigma-Aldrich, Taufkirchen, Germany) (NB plus all), seeded in one T75 flask (TPP, Switzerland) and maintained in a humidified atmosphere at 37° C. and 5% CO2. […] On this day (day 2), half of the medium was refreshed and on day 4 cells were passaged. To passage the cells, the culture medium containing the floating neurospheres was collected in a 15 ml tube (Corning, Lowell, USA) and centrifuged at 120×g for 5 min. For dissociation, the pellet was resuspended in 500 μl Accutase (PAA, Pasching, Austria) and triturated using a 1 ml pipette. The cell suspension was incubated at 37° C. for 10 min, and then, 10 ml media were added. Cell number was determined by Trypan blue exclusion.
Luciferase assays were performed using a noncommercial dual luciferase enzyme assay system (Dyer et al., 2000, Anal Biochem). In this system, a co-transfection with pDCX-Luci and a control vector driving Renilla-luciferase under the CMV promoter was performed. The two different luciferases have different specific substrates and, therefore, the DCX regulatory region driven firefly luciferase activity can be distinguished from CMV driven Renilla-luciferase. For analysis, the firefly luciferase activity was normalized against the CMV driven Renilla-luciferase. For each transfection reaction, a volume containing two million cells was transferred into a 15 ml tube (Corning, Lowell, USA), centrifuged at 120×g for 5 min to pellet the cells and resuspended in 100 μl Amaxa Mouse Neural Stem Cell Nucleofector Kit (Lonza, Kln, Germany). Then, pDCX-Luci (Karl, 2005) and pRL3 (Promega, Mannheim, Germany) (5 μg each) were added and the entire reaction mix was transferred into an Amaxa transfection cuvette. Transfection was done using the A-033 program in the Amaxa Nucleofector II (Lonza, Kln, Germany). Transfected cells were then pipetted into 20 ml of DMEM knockout medium (Gibco BRL, Germany) containing 20% serum replacement supplement (PAN Biotech GmbH, Aidenbach, Germany), 2 mM L-glutamine (PAN Biotech GmbH, Aidenbach, Germany) and 100 μg/ml Penicillin/Streptomycin (PAN Biotech GmbH, Aidenbach, Germany) (DMEM-KO plus supplements) in a 50 ml tube (Corning, Lowell, USA). From this resulting cell suspension, 200 μl per well were plated in Poly-Ornithine/Laminin coated 96-well-luciferase plates (Wimmer & Macho, Wels, Austria) in a cell density of 20.000 cells per well, as described herein below.

SMILES strings stand for the structures. Entries after “also recorded” stand apart in the source; their conditions may differ.

With `COc1cc(O)c(CC=C(C)C)c2c1C(=O)CC(c1ccc(O)cc1)O2` (centres unmarked) [isoxanthohumol, 7-hydroxy-2-(4-hydroxyphenyl)-5-methoxy-8-(3-methylbut-2-en-1-yl)chroman-4-one, reference compound], the “number of DCX/Map2ab double positive cells” value in the experiment on MEF E16 cells is reported as “Good results”. Besides, the “stimulatory effect on the DCX promoter activity (FF/R relative to control)” value (shortened to “stimulatory effect … (FF/R relative to control)”) in experiment [1] is on record as “did not have any significant stimulatory effect”.

As to `Cc1c(C)c2c(c(C)c1O)CCC(C)(CCCC(C)CCCC(C)CCCC(C)C)O2` (racemic) [tocopherol, 2,5,7,8-tetramethyl-2-(4,8,12 trimethyltridecyl)chroman-6-ol], the “number of DCX/Map2ab double positive cells” value in the experiment on MEF E16 cells was “marginally increase”. With `COc1cc2c(c(O)c1C(=O)/C=C/c1ccc(O)c(O)c1)C=CC(C)(C)O2` [Compound 1e, (2E)-1-(5-Hydroxy-7-methoxy-2,2-dimethyl-2H-chromen-6-yl)-3-(3,4-dihydroxyphenyl)prop-2-en-1-one], the “stimulatory effect … (FF/R relative to control)” value in experiment [1] is “significantly and strongly induce; also recorded: very strong and significant stimulatory effect”.

On to `CC1(C)C=Cc2c(cc3c(c2O)C(=O)CC(c2ccc(O)cc2)O3)O1` (centres unmarked) [Compound 2a, 5-Hydroxy-2-(4-hydroxy-phenyl)-8,8-dimethyl-2,3-dihydro-8H-pyrano[3,2-g]chromen-4-one], for which, in experiment [1], the “effect on DCX promoter induction” value was “good results” and the “stimulatory effect … (FF/R relative to control)” value was “stimulatory effect on the DCX promoter activity was also observed”. For `Cc1c(C)c2c(c(C)c1O)CCC(C)(C)O2` [chromanol, 2,2,5,7,8-Pentamethyl-6-chromanol, reference compound], the “number of DCX/Map2ab double positive cells” value with MEF E16 cells was “marginally increase”. Moreover, in experiment [1], the “stimulatory effect … (FF/R relative to control)” value is “did not have any significant stimulatory effect”. Take `COc1cc2c(c(O)c1C(C)=O)C=CC(C)(C)O2` [ENDF4, 1-(5-hydroxy-7-methoxy-2,2-dimethyl-2H-chromen-6-yl)-ethanone]: the “number of DCX positive cells” value in the experiment with MEF E16 cells (FIG. 3A) is listed as “strongly enhanced the number of DCX positive cells”. Also, in the experiment on MEF E16 cells, the “number of DCX/Map2ab double positive cells” value was “Good results; also recorded: increased slightly more”. The “stimulatory effect … (FF/R relative to control)” value in experiment [1] is “did not have any significant stimulatory effect”.

With `COc1cc2c(c(O)c1C(=O)CCc1ccc(O)cc1)CCC(C)(C)O2` [Compound 1c, 1-(5-hydroxy-7-methoxy-2,2-dimethylchroman-6-yl)-3-(4-hydroxyphenyl)propan-1-one], the “stimulatory effect … (FF/R relative to control)” value in experiment [1] was “significantly and strongly induce; also recorded: very strong and significant stimulatory effect”.

As for `CC(C)=CCc1c(O)cc2c(c1O)C(=O)CC(c1ccc(O)cc1)O2` (centres unmarked) [6-prenylnaringenin, 5,7-dihydroxy-2-(4-hydroxyphenyl)-6-(3-methylbut2-en-1yl)chroman-4-one], in the experiment with MEF E16 cells, the “number of DCX/Map2ab double positive cells” value was “Good results”.

For `COc1cc2c(c(O)c1C(=O)/C=C/c1ccc(O)cc1)C=CC(C)(CCC=C(C)C)O2` (centres unmarked) [Compound 1g, (2E)-1-(5-hydroxy-7-methoxy-2-methyl-2-(4-methylpent-3-enyl)-2H-chromen-6-yl)-3-(4-hydroxyphenyl)prop-2-en-1-one], the “effect on DCX promoter induction” value in experiment [1] was “good results”. In the case of `COc1cc2c(c(O)c1C(=O)/C=C/c1ccc3c(c1)OCO3)C=CC(C)(C)O2` [Compound 1f, (2E)-3-(benzo[d][1,3]dioxol-6-yl)-1-(5-hydroxy-7-methoxy-2,2-dimethyl-2H-chromen-6-yl)prop-2-en-1-one], the “stimulatory effect … (FF/R relative to control)” value in experiment [1] is “significantly and strongly induce; also recorded: very strong and significant stimulatory effect”.

With `CC(C)=CCc1c(O)cc(O)c2c1OC(c1ccc(O)cc1)CC2=O` (centres unmarked) [8-prenylnaringenin, 5,7-dihydroxy-2-(4-hydroxyphenyl)-8-(3-methylbut2-en-1yl)chroman-4-one], in the experiment on MEF E16 cells, the “number of DCX/Map2ab double positive cells” value was “Good results”. Consider `CC1(C)C=Cc2c(cc(O)c3c2OC(c2ccc(O)cc2)CC3=O)O1` (centres unmarked) [Compound 3b, 5-Hydroxy-2-(4-hydroxy-phenyl)-8,8-dimethyl-2,3-dihydro-8H-pyrano[2,3-f]chromen-4-one], for which the “effect on DCX promoter induction” value in experiment [1] is given as “good results”.

(Values after patent US9956199B2, “Chromane-like cyclic prenylflavonoids for the medical intervention in neurological disorders” (priority 2011, dated 2018).)
